According to publication doi:10.1101/2020.06.11.145995v1 (biorxiv, 2020):

Experiments:
Experiment in all cases: biochemical
PIK3CA(Q546K) = PIK3CA(Q546K) (Homo sapiens, UniProt P42336, Q546K); conditions: read-out: CPT-1-70-1 (1μM) % control
PIP5K1C = PIP5K1C (Homo sapiens, UniProt O60331); conditions: read-out: CPT-1-70-1 (1μM) % control
PIM2 = PIM2 (Homo sapiens, UniProt Q9P1W9); conditions: read-out: CPT-1-70-1 (1μM) % control
NEK10 = NEK10 (Homo sapiens, UniProt Q6ZWH5); conditions: read-out: CPT-1-70-1 (1μM) % control
NEK10, sequence (Q6ZWH5 whole entry): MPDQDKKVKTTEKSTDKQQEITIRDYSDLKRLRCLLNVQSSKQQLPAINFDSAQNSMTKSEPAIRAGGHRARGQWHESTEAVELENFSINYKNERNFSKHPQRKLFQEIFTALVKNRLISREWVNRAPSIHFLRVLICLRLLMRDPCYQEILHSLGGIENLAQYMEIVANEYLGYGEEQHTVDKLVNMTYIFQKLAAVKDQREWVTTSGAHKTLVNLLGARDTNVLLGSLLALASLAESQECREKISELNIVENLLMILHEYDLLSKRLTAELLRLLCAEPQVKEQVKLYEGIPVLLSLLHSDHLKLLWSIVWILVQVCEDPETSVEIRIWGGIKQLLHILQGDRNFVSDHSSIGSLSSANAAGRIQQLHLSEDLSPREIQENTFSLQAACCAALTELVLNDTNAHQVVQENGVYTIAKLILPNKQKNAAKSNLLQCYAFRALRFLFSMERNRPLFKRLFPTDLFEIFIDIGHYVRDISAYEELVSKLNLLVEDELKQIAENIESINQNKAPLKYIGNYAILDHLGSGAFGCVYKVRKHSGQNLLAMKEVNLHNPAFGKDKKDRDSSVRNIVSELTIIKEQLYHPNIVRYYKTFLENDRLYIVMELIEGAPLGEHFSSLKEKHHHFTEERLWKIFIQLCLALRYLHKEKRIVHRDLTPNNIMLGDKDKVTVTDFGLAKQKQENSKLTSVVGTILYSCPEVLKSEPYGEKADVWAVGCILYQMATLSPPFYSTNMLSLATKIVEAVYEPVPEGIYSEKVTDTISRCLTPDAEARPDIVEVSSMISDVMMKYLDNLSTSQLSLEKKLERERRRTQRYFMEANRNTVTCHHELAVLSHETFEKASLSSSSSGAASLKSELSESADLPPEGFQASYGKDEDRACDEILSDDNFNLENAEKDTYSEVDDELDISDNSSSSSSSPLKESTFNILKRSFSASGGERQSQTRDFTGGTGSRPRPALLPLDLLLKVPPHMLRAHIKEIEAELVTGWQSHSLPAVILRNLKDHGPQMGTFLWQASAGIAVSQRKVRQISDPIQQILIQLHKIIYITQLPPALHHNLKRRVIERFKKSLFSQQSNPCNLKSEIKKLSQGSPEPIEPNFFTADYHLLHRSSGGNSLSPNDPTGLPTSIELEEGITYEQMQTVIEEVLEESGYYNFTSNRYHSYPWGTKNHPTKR

PKAC-alpha = PKAC-alpha (Homo sapiens, UniProt P17612); conditions: read-out: CPT-1-70-1 (1μM) % control
PIK4CB = PIK4CB (Homo sapiens, UniProt Q9UBF8); conditions: read-out: CPT-1-70-1 (1μM) % control
PIK3CG = PIK3CG (Homo sapiens, UniProt P48736); conditions: read-out: CPT-1-70-1 (1μM) % control
PKN1 = PKN1 (Homo sapiens, UniProt Q16512); conditions: read-out: CPT-1-70-1 (1μM) % control
SGK = SGK (Homo sapiens, UniProt O00141); conditions: read-out: CPT-1-70-1 (1μM) % control
NIK = NIK (Homo sapiens, UniProt Q99558); conditions: read-out: CPT-1-70-1 (1μM) % control
PIP5K1A = PIP5K1A (Homo sapiens, UniProt Q99755); conditions: read-out: CPT-1-70-1 (1μM) % control
PIM1 = PIM1 (Homo sapiens, UniProt P11309); conditions: read-out: CPT-1-70-1 (1μM) % control
PIM1, sequence (P11309 whole entry): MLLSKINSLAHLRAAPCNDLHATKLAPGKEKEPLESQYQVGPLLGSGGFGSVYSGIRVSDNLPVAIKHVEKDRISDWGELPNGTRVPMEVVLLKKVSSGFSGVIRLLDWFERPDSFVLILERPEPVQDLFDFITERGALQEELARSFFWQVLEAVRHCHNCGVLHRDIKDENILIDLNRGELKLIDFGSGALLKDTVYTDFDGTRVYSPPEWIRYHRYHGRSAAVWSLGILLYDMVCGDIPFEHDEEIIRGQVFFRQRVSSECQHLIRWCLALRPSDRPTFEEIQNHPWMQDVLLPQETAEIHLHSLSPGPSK

SGK2 = SGK2 (Homo sapiens, UniProt Q9HBY8); conditions: read-out: CPT-1-70-1 (1μM) % control
PIK3CD = PIK3CD (Homo sapiens, UniProt O00329); conditions: read-out: CPT-1-70-1 (1μM) % control
PIP5K2C = PIP5K2C (Homo sapiens, UniProt Q8TBX8); conditions: read-out: CPT-1-70-1 (1μM) % control
PKN2 = PKN2 (Homo sapiens, UniProt Q16513); conditions: read-out: CPT-1-70-1 (1μM) % control
PIP5K2B = PIP5K2B (Homo sapiens, UniProt P78356); conditions: read-out: CPT-1-70-1 (1μM) % control
WNK1 = WNK1 (Homo sapiens, UniProt Q9H4A3); conditions: read-out: CPT-1-70-1 (1μM) % control
PIM3 = PIM3 (Homo sapiens, UniProt Q86V86); conditions: read-out: CPT-1-70-1 (1μM) % control
WNK3 = WNK3 (Homo sapiens, UniProt Q9BYP7); conditions: read-out: CPT-1-70-1 (1μM) % control
ERK2 = ERK2 (Homo sapiens, UniProt P28482); conditions: read-out: CPT-1-70-1 (1uM) % control
EPHB1 = EPHB1 (Homo sapiens, UniProt P54762); conditions: read-out: CPT-1-70-1 (1uM) % control
EPHB1, sequence (P54762 whole entry): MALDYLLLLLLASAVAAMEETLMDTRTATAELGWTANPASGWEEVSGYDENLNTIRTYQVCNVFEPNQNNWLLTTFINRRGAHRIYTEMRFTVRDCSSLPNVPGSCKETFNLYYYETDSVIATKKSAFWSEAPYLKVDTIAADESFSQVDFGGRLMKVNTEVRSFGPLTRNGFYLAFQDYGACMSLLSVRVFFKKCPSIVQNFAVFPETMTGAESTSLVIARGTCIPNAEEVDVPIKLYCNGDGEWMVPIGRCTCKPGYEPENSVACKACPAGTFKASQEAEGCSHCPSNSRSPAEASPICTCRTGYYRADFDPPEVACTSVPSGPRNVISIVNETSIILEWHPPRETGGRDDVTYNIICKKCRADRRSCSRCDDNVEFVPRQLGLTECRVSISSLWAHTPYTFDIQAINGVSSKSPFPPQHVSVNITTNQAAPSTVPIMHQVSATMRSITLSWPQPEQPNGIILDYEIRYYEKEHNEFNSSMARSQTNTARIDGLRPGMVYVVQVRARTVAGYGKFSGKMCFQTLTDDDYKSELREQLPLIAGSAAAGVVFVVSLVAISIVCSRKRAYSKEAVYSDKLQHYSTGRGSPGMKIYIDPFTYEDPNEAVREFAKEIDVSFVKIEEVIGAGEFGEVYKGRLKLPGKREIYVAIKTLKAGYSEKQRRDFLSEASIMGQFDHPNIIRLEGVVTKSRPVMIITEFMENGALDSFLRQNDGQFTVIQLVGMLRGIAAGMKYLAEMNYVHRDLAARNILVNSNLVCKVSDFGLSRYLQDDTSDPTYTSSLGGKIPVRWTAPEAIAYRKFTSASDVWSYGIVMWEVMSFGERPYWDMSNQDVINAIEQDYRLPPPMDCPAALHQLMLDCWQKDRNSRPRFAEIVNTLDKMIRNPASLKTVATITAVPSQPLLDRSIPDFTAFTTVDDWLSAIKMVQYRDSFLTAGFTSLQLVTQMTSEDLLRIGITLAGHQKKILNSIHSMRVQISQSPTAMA

ERK5 = ERK5 (Homo sapiens, UniProt Q13164); conditions: read-out: CPT-1-70-1 (1uM) % control
ERK5, sequence (Q13164 whole entry): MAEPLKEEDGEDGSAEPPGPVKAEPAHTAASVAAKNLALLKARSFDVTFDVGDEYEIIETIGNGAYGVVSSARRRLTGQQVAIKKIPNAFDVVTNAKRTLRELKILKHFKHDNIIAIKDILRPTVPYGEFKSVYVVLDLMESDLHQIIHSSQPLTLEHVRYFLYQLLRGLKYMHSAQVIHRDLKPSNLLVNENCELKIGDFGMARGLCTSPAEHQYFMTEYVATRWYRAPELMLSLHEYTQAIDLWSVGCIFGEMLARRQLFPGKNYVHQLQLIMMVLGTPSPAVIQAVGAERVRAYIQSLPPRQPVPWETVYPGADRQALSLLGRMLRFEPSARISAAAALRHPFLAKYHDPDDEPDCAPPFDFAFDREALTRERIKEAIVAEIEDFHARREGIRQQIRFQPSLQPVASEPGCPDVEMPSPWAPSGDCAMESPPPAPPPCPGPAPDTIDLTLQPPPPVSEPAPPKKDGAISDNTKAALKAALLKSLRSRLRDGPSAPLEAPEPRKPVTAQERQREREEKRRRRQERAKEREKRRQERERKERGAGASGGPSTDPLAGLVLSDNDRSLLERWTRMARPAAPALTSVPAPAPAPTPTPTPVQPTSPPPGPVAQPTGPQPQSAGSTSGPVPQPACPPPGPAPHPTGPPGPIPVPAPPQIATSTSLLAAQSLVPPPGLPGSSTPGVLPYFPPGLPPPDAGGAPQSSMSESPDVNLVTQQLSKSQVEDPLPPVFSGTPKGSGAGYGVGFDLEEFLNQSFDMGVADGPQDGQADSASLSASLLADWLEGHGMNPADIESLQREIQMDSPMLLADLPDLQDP

EPHA1 = EPHA1 (Homo sapiens, UniProt P21709); conditions: read-out: CPT-1-70-1 (1uM) % control
EPHA7 = EPHA7 (Homo sapiens, UniProt Q15375); conditions: read-out: CPT-1-70-1 (1uM) % control
EGFR(T790M) = EGFR(T790M) (Homo sapiens, UniProt P00533, T790M); conditions: read-out: CPT-1-70-1 (1uM) % control
EPHA8 = EPHA8 (Homo sapiens, UniProt P29322); conditions: read-out: CPT-1-70-1 (1uM) % control
KIT(V559D,T670I) = KIT(V559D,T670I) (Homo sapiens, UniProt P10721, T670I/V559D); conditions: read-out: CPT-1-70-1 (1uM) % control
EGFR(L858R,T790M) = EGFR(L858R,T790M) (Homo sapiens, UniProt P00533, L858R/T790M); conditions: read-out: CPT-1-70-1 (1uM) % control

PIM2, sequence (Q9P1W9 whole entry): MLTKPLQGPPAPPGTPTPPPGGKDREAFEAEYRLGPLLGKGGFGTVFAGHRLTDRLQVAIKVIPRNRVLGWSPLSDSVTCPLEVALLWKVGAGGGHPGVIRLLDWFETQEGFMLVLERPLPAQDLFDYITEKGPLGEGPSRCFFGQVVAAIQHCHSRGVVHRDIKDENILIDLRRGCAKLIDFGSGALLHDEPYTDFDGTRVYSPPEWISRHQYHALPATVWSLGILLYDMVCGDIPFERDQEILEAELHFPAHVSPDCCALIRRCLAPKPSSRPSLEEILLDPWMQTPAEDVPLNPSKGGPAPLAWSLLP
PIK3CA(Q546K), sequence (P42336 whole entry Q546K): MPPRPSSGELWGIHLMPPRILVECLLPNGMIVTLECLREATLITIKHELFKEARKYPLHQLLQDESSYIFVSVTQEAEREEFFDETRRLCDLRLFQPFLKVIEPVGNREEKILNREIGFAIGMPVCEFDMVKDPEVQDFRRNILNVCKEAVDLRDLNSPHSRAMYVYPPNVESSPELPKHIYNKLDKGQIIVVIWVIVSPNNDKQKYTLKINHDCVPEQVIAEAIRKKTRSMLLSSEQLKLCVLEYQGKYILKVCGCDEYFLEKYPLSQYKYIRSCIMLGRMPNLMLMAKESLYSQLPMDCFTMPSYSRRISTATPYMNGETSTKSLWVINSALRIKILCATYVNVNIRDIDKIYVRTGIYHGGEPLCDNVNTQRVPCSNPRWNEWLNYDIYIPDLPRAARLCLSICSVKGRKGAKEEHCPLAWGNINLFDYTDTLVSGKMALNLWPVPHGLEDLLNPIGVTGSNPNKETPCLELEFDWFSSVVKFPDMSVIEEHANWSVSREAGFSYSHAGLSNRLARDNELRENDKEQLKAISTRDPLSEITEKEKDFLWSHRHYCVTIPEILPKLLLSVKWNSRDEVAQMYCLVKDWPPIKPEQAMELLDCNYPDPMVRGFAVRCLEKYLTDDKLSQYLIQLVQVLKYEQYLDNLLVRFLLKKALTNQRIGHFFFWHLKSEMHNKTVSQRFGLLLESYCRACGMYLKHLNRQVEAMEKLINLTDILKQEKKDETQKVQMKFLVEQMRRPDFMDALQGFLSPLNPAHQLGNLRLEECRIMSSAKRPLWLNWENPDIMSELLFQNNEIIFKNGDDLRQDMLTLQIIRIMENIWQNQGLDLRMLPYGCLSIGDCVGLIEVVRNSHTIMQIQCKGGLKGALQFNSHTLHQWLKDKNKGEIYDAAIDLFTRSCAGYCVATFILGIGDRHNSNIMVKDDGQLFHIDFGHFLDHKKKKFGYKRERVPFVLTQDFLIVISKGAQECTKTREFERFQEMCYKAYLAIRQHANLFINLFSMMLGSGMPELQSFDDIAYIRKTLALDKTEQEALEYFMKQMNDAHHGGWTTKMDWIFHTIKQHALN

Compound: CN1CCN(c2ccc(Nc3nc(Oc4ccc(NC(=O)CCl)cc4)c4cc[nH]c4n3)cc2)CC1 [CPT1-70-1]
- remaining activity at 1 µM (PIK3CA(Q546K)): 100%
- remaining activity at 1 µM (PIP5K1C): 57%
- remaining activity at 1 µM (PIM2): 100%
- remaining activity at 1 µM (NEK10): 14%
- remaining activity at 1 µM (PKAC-alpha): 69%
- remaining activity at 1 µM (PIK4CB): 100%
- remaining activity at 1 µM (PIK3CG): 100%
- remaining activity at 1 µM (PKN1): 79%
- remaining activity at 1 µM (SGK): 26%
- remaining activity at 1 µM (NIK): 100%
- remaining activity at 1 µM (PIP5K1A): 13%
- remaining activity at 1 µM (PIM1): 100%
- remaining activity at 1 µM (SGK2): 100%
- remaining activity at 1 µM (PIK3CD): 100%
- remaining activity at 1 µM (PIP5K2C): 63%
- remaining activity at 1 µM (PKN2): 100%
- remaining activity at 1 µM (PIP5K2B): 100%
- remaining activity at 1 µM (WNK1): 100%
- remaining activity at 1 µM (PIM3): 81%
- remaining activity at 1 µM (WNK3): 100%
- remaining activity at 1 µM (ERK2): 100%
- remaining activity at 1 µM (EPHB1): 84%
- remaining activity at 1 µM (ERK5): 87%
- remaining activity at 1 µM (EPHA1): 79%
- remaining activity at 1 µM (EPHA7): 62%
- remaining activity at 1 µM (EGFR(T790M)): 0.8%
- remaining activity at 1 µM (EPHA8): 53%
- remaining activity at 1 µM (KIT(V559D,T670I)): 28%
- remaining activity at 1 µM (EGFR(L858R,T790M)): 0.35%
